Test results reported in publication PMC9395504 (Investigational New Drugs, 2022).
“Also recorded” adds a separate entry of the source. Where two headings read alike, the source gives them in different places. Marks after values point to notes of the source that are not given here.

Assays:
[1] = Safety: adverse events by NCI-CTCAE v4.0, phase 1 study Part 1; format: in vivo, human
Procedure: (§1) We defined the dose-limiting toxicity (DLT) period as the first 28 days of each dose-escalation cohort’s treatment cycle (DLT window). […] Non-hematologic DLTs included grade ≥3 nausea, vomiting, or diarrhea enduring >48 hours despite standard medical management, grade 3 fatigue persisting >7 days or grade 4 fatigue, any grade ≥3 metabolic laboratory abnormalities that are not controlled within 48 hours by standard medical management.

[2] = Dose escalation (3+3+3): dose-limiting toxicity and maximum tolerated dose; format: in vivo, human; conditions: once daily, seven days of a 21-day cycle
Procedure: Trametinib, 2 mg once daily (both Arms), and dabrafenib, 150 mg twice daily (Arm 1 only), were subsequently started on day 8, cycle 1 (Fig. 1). Treatment was administered continuously in consecutive treatment cycles until disease progression, intolerability, or withdrawal of consent.
as §1

serum MIC-1 protein = conditions: single-agent AMG 232, cited from earlier work
[3] = system: TP53-WT patient-derived melanoma xenografts; conditions: 50 mg/kg, alone or combined with dabrafenib and trametinib; cited from earlier work
[4] = Plasma pharmacokinetics of AMG 232 at steady state (LC-MS/MS, noncompartmental); format: in vivo, human; conditions: for AUC(0-t): read-out: AUC24hr
Excerpt: The following PK parameters were estimated: maximum observed plasma concentration (Cmax), time to reach Cmax (tmax), area-under-the-plasma concentration-time curve (AUC), terminal phase half-life (t1/2,z), and apparent total body clearance (CL/F). We performed noncompartmental analyses for PK parameter estimation using Phoenix® WinNonlin® version 6.4 or later software (Certara™, Princeton, NJ). […] We prepared descriptive statistics, tables, and graphs using Phoenix® WinNonlin® and Prism version 9.1.1 (GraphPad Software, San Diego, CA).

[5] = All patients, N=31, attributed to AMG 232 only
[6] = All patients, N=31, attributed to any drug
[7] = human, plasma, oral, 120 mg, Cycle 1 Day 7, AMG 232 monotherapy, Arm 2, 120 mg, geometric mean (CV%)
[8] = human, plasma, oral, 120 mg, Cycle 2 Day 7, co-administered with T + D, Arm 1, 120 mg, geometric mean (CV%)
[9] = human, plasma, oral, 120 mg, Cycle 2 Day 7, co-administered with T, Arm 2, 120 mg, geometric mean (CV%)
[10] = human, plasma, oral, 180 mg, Cycle 1 Day 7, AMG 232 monotherapy, Arm 1, 180 mg, geometric mean (CV%)
[11] = human, plasma, oral, 180 mg, Cycle 2 Day 7, co-administered with T + D, Arm 1, 180 mg, geometric mean (CV%)
[12] = human, plasma, oral, 240 mg, Cycle 1 Day 7, AMG 232 monotherapy, Arm 2, 240 mg, geometric mean (CV%)
[13] = human, plasma, oral, 240 mg, Cycle 2 Day 7, co-administered with T, Arm 2, 240 mg, geometric mean, n = 2

## CC(C)[C@@H](CS(=O)(=O)C(C)C)N1C(=O)[C@@](C)(CC(=O)O)C[C@H](c2cccc(Cl)c2)[C@H]1c1ccc(Cl)cc1 [AMG 232]
[1]; 240 of 614 AEs, in 30 subjects
  Share of treatment-emergent AEs attributable to AMG 232: 39%
[1]; All patients, N=31
  AEs Grade 1: 31 (100) N (%)
  AEs Grade 2: 30 (97) N (%)
  AEs Grade 3: 25 (81) N (%)
  AEs Grade 4: 2 (6) N (%)
  AEs leading to AMG 232 d/c: 7 (23) N (%)
  AEs leading to dabraf d/c: 2 (6) N (%)
  Serious AE Adrenal insufficiency: 2 (6) N (%)
  Serious AE Anemia: 1 (3) N (%)
  Serious AE Cellulitis: 2 (6) N (%)
  Serious AE Dehydration: 3 (10) N (%)
  Serious AE Diarrhea: 4 (13) N (%)
  Serious AE Fatigue: 1 (3) N (%)
  Serious AE Hypotension: 1 (3) N (%)
  Serious AE Nausea: 5 (16) N (%)
  Serious AE Peripheral Edema: 1 (3) N (%)
  Serious AE Pulmonary embolism: 5 (16) N (%)
  Serious AE Pyrexia: 5 (16) N (%)
  Serious AE Seizure: 3 (10) N (%)
  Serious AE Thrombocytopenia: 1 (3) N (%)
  Serious AE Vomiting: 5 (16) N (%)
[1]; [5]
  AE AST increased: 3 (10) N (%)
  AE Abdominal pain: 5 (16) N (%)
  AE Adrenal insufficiency: 0 N (%)
  AE Anemia: 5 (16) N (%)
  AE Cellulitis: 0 N (%)
  AE Chills: 2 (6) N (%)
  AE Cough: 2 (6) N (%)
  AE Decreased appetite: 13 (42) N (%)
  AE Dehydration: 1 (3) N (%)
  AE Dermatitis acneiform: 3 (10) N (%)
  AE Diarrhea: 24 (77) N (%)
  AE Dizziness: 3 (10) N (%)
  AE Dry mouth: 3 (10) N (%)
  AE Dysgeusia: 4 (13) N (%)
  AE Dyspepsia: 3 (10) N (%)
  AE Fatigue: 23 (74) N (%)
  AE Headache: 3 (10) N (%)
  AE Hypertension: 2 (6) N (%)
  AE Hypotension: 1 (3) N (%)
  AE Lipase increased: 4 (13) N (%)
  AE Malaise: 4 (13) N (%)
  AE Nausea: 27 (87) N (%)
  AE Neutropenia: 3 (10) N (%)
  AE Peripheral Edema: 1 (3) N (%)
  AE Pruritus: 0 N (%)
  AE Pulmonary embolism: 2 (6) N (%)
  AE Pyrexia: 2 (6) N (%)
  AE Rash: 2 (6) N (%)
  AE Seizure: 0 N (%)
  AE Thrombocytopenia: 3 (10) N (%)
  AE Vomiting: 21 (68) N (%)
[1]; [6]
  AE AST increased: 6 (19) N (%)
  AE Abdominal pain: 6 (19) N (%)
  AE Adrenal insufficiency: 2 (6) N (%)
  AE Anemia: 9 (29) N (%)
  AE Cellulitis: 2 (6) N (%)
  AE Chills: 8 (26) N (%)
  AE Cough: 8 (26) N (%)
  AE Decreased appetite: 16 (52) N (%)
  AE Dehydration: 9 (29) N (%)
  AE Dermatitis acneiform: 14 (45) N (%)
  AE Diarrhea: 27 (87) N (%)
  AE Dizziness: 5 (16) N (%)
  AE Dry mouth: 5 (16) N (%)
  AE Dysgeusia: 6 (19) N (%)
  AE Dyspepsia: 4 (13) N (%)
  AE Fatigue: 25 (81) N (%)
  AE Headache: 15 (48) N (%)
  AE Hypertension: 8 (26) N (%)
  AE Hypotension: 8 (26) N (%)
  AE Lipase increased: 5 (16) N (%)
  AE Malaise: 4 (13) N (%)
  AE Nausea: 28 (90) N (%)
  AE Neutropenia: 5 (16) N (%)
  AE Peripheral Edema: 13 (42) N (%)
  AE Pruritus: 11 (35) N (%)
  AE Pulmonary embolism: 5 (16) N (%)
  AE Pyrexia: 11 (35) N (%)
  AE Rash: 7 (23) N (%)
  AE Seizure: 3 (10) N (%)
  AE Thrombocytopenia: 7 (23) N (%)
  AE Vomiting: 22 (71) N (%)
[1]; all 31 patients
  AMG 232-related AE abdominal pain, patients: 16%
  AMG 232-related AE anemia, patients: 16%
  AMG 232-related AE decreased appetite, patients: 42%
  AMG 232-related AE diarrhea, patients: 77%
  AMG 232-related AE dysgeusia, patients: 13%
  AMG 232-related AE fatigue, patients: 74%
  AMG 232-related AE increased lipase, patients: 13%
  AMG 232-related AE malaise, patients: 13%
  AMG 232-related AE nausea, patients: 87%
  AMG 232-related AE vomiting, patients: 68%
  Patients with serious AMG 232-related AEs: 8 patients
  Serious AMG 232-related AE diarrhea, patients: 10%
  Serious AMG 232-related AE nausea, patients: 13%
  Serious AMG 232-related AE pulmonary embolism, patients: 6.5%
  Serious AMG 232-related AE vomiting, patients: 10%
[1]; all 31 patients, AMG 232 + T±D
  SAE diarrhea, patients: 13%
  SAE nausea, patients: 16%
  SAE vomiting, patients: 16%
  Treatment-emergent AE acneiform dermatitis, patients: 45%
  Treatment-emergent AE decreased appetite, patients: 52%
  Treatment-emergent AE diarrhea, patients: 87%
  Treatment-emergent AE fatigue, patients: 81%
  Treatment-emergent AE headache, patients: 48%
  Treatment-emergent AE nausea, patients: 90%
  Treatment-emergent AE peripheral edema, patients: 42%
  Treatment-emergent AE pruritus, patients: 35.5%
  Treatment-emergent AE pyrexia, patients: 35.5%
  Treatment-emergent AE vomiting, patients: 71%
[1]; all 31 patients, AMG 232 + T±D, 24 patients
  Patients with serious AEs (SAEs): 77%
[1]; all 31 patients, seven patients
  Patients withdrawn/discontinued from AMG 232 due to AEs: 23%
[2]; Arm 1
  MTD of AMG 232 combined with dabrafenib plus trametinib: 120 mg
[2]; Arm 2
  MTD of AMG 232 combined with trametinib: 120 mg
Serum MIC-1 protein; daily
  biologically effective AMG 232 dose in humans: at least 240 mg
Serum MIC-1 protein
  daily dose at which significant increases in serum MIC-1 protein were seen: higher than 240 mg
[3]
  antitumor activity: demonstrated antitumor activity
[4]; Cycle 1 Day 7, AMG 232 monotherapy, Arm 1, 120 mg, geometric mean (CV%)
  AUC24hr: 5140 (59.4%) n = 4 hr•ng/mL
[4]; Cycle 2 Day 7, co-administered with T, Arm 2, 180 mg, geometric mean (CV%)
  AUC24hr: 9410 (107.0%)^a n = 5 hr•ng/mL
[4]; cycle 2 day 7 vs cycle 1 day 7, Wilcoxon matched-pairs signed-rank test p>0.05
  Effect of trametinib ± dabrafenib on AMG 232 PK exposures (Cmax, AUC24hr): not significant; also recorded: not significantly altered
[4]; human, plasma, oral, 120 mg, Cycle 1 Day 7, AMG 232 monotherapy, Arm 1, 120 mg, geometric mean (CV%)
  Cmax: 491 ng/mL
[4]; [7]
  Cmax: 914 ng/mL
  AUC(0-t): 9810 ng·h/mL
[4]; [8]
  Cmax: 392 ng/mL
  AUC(0-t): 3140 ng·h/mL
[4]; [9]
  Cmax: 630 ng/mL
  AUC(0-t): 6740 ng·h/mL
[4]; [10]
  Cmax: 847 ng/mL
  AUC(0-t): 5890 ng·h/mL
[4]; human, plasma, oral, 180 mg, Cycle 1 Day 7, AMG 232 monotherapy, Arm 2, 180 mg, geometric mean (CV%)
  Cmax: 1250 ng/mL
[4]; [11]
  Cmax: 647 ng/mL
  AUC(0-t): 4750 ng·h/mL
[4]; human, plasma, oral, 180 mg, Cycle 2 Day 7, co-administered with T, Arm 2, 180 mg, geometric mean (CV%)
  Cmax: 1010 ng/mL
[4]; [12]
  Cmax: 3300 ng/mL
  AUC(0-t): 21100 ng·h/mL
[4]; [13]
  Cmax: 953 ng/mL
  AUC(0-t): 6280 ng·h/mL
[4]; human, plasma, oral, Cycle 2 Day 7, co-administered with T, Arm 2, 240 mg, median (min-max)
  Tmax: 1.5 h
